Measurements reported in patent publication KR20110136074A, “안정한 에스-베포타스틴 함유 약학조성물 및 이의 제조방법” (이우영, priority 2010, dated 2011).

Legend:
[1] = Optical purity (chiral HPLC) after storage for 4 weeks at 60℃, 75% relative humidity, exposed or sealed; assay type: physicochemical
[2] = by moisture in additives when formulated with usual excipients and binders; cited from earlier work
[3] = 40℃, 75% relative humidity; cited from earlier work

Row | SMILES | optical purity after 4 weeks, exposed state ([1]; exposed) [%] | optical purity after 4 weeks ([1]; exposed or sealed) | optical purity after 4 weeks, sealed state ([1]; sealed) [%] | racemization to the (R)-isomer [2] | formation of (R)-isomer and degradation products [3]
1 | O=C(O)CCCN1CCC(O[C@@H](c2ccc(Cl)cc2)c2ccccn2)CC1 [유상의 (S)-베포타스틴] | 95.56 | 95.5~97.4% | 97.32 | (R)-배열의 이성체로 라세미화가 일어나 | –
2 | O=C(O)CCCN1CCC(O[C@@H](c2ccc(Cl)cc2)c2ccccn2)CC1.O=S(=O)(O)c1ccccc1 [(S)-베포타스틴 벤젠술폰산염] | – | – | – | – | (R)-배열의 이성체 및 분해물이 생성된다
